Source: BigSolDB 2.1

COc1cc([N+](=O)[O-])ccc1N
solubility (mole fraction)
Conditions | 278.15 K | 283.15 K | 288.15 K | 293.15 K | 298.15 K | 303.15 K | 308.15 K | 313.15 K | 318.15 K | 323.15 K
in isopropanol | 0.00186 | 0.00221 | 0.00265 | 0.00322 | 0.00396 | 0.00492 | 0.00595 | 0.00719 | 0.00855 | 0.0101
in water | 4.03e-06 | 5.68e-06 | 7.36e-06 | 9.49e-06 | 1.27e-05 | 1.74e-05 | 2.36e-05 | 3.15e-05 | 4.23e-05 | 5.49e-05
